According to patent US11981661B2, “Heterocyclic compounds” (Hoffmann-La Roche Inc., priority 2020, dated 2024):

Biological target: T1, MAGL (Homo sapiens, UniProt Q99685)
T1 sequence (Q99685 1-303): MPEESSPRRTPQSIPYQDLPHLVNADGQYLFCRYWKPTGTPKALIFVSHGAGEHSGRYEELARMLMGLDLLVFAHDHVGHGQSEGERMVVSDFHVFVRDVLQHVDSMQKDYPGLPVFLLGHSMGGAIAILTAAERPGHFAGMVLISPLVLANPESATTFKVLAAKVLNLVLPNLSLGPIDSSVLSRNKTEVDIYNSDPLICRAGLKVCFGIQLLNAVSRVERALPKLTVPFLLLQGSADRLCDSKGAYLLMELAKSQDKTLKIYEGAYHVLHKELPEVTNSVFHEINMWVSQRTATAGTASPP
Assay: 2-AG assay (MAGL inhibitory activity, hydrolysis of 2-arachidonoylglycerol followed by mass spectrometry)
Type: biochemical
Conditions: 50 pM MAGL, 8 μM 2-arachidonoylglycerol, 15 min preincubation, 30 min incubation at RT, concentration range 12.5 μM to 0.8 pM
Procedure, shortened: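 Activity derived from the arachidonic acid/d8-arachidonic acid MS intensity ratio after acetonitrile quench. Reaction: 8 μM 2-AG substrate with 50 pM MAGL, 30 min at RT, following 15 min RT compound preincubation; buffer 50 mM TRIS, 1 mM EDTA, 0.01% Tween; final compound range 12.5 μM to 0.8 pM.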

| SMILES | IC50 [nM] |
| --- | --- |
| CS(=O)(=O)c1ccc(-c2ccc(C3CN(C(=O)CC[C@@H]4COC(=O)N4)C3)cc2)c(C(F)(F)F)c1 [Example 128, (4R)-4-[3-[3-[4-[4-Methyl-sulfonyl-2-(trifluoromethyl)phenyl]phenyl]azetidin-1-yl]-3-oxo-propyl] oxazolidin-2-one] | 0.26 |
| O=C1N[C@H](CCC(=O)N2CC(c3ccc(N4CCC(C(F)(F)F)C4)c(F)c3)C2)CO1 (stereo partly drawn) [Example 129, (4R)-4-[3-[3-[3-Fluoro-4-[3-(trifluoromethyl)pyrrolidin-1-yl]phenyl]azetidin-1-yl]-3-oxo-propyl]oxazolidin-2-one] | 3 |
| O=C1N[C@H](CCC(=O)N2CC(c3ccc(C4CCS(=O)(=O)C4)cc3)C2)CO1 (stereo partly drawn) [Example 130, (4R)-4-[3-[3-[4-(1,1-Dioxothiolan-3-yl)phenyl]azetidin-1-yl]-3-oxo-propyl] oxazolidin-2-one] | 251 |
| O=C1N[C@H](CCC(=O)N2CC(c3ccc(N4CC5(CCCC5)C4)cc3)C2)CO1 [Example 131] | 1 |
| O=C1N[C@H](CCC(=O)N2CC(c3ccc(N4CC5(C4)CC(F)(F)C5)cc3)C2)CO1 [Example 132, (4R)-4-[3-[3-[4-(6,6-Difluoro-2-azaspiro[3.3]heptan-2-yl)phenyl]azetidin-1-yl]-3-oxo-propyl]oxazolidin-2-one] | 9 |
| O=C1N[C@H](CCC(=O)N2CC(c3ccc(C4CC(C(F)(F)F)C4)cc3)C2)CO1 (stereo partly drawn) [Example 133, (4R)-4-[3-Oxo-3-[3-[4-[3-(trifluoro-methyl)cyclobutyl]phenyl]azetidin-1-yl]propyl]oxazolidin-2-one] | 2 |
| O=C1N[C@H](CCC(=O)N2CC(c3ccc(N4CC(C(F)(F)F)C4)c(F)c3)C2)CO1 [Example 134, (4R)-4-[3-[3-[3-Fluoro-4-[3-(trifluoromethyl)azetidin-1-yl]phenyl]azetidin-1-yl]-3-oxo-propyl] oxazolidin-2-one] | 16 |
| O=C1N[C@H](CCC(=O)N2CC(c3ccc(N4CCC(C(F)(F)F)C4)cc3)C2)CO1 (stereo partly drawn) [Example 135, (4R)-4-[3-Oxo-3-[3-[4-[3-(trifluoro-methyl)pyrrolidin-1-yl]phenyl]azetidin-1-yl]propyl] oxazolidin-2-one] | 5 |
| O=C1N[C@H](CCC(=O)N2CC3(CCC(Oc4ccc(C(F)(F)F)nn4)CC3)C2)CO1 [Example 136, (4R)-4-[3-Oxo-3-[7-[6-(trifluoro-methyl)pyridazin-3-yl]oxy-2-azaspiro[3.5]nonan-2-yl]propyl] oxazolidin-2-one] | 22 |
| CS(=O)(=O)c1cc(F)ccc1OC1CCC2(CC1)CN(C(=O)CC[C@@H]1COC(=O)N1)C2 [Example 137, (4R)-4-[3-[7-(4-Fluoro-2-methyl-sulfonyl-phenoxy)-2-azaspiro[3.5]nonan-2-yl]-3-oxo-propyl] oxazolidin-2-one] | 43 |
| O=C1N[C@H](CCC(=O)N2CC3(CCC(NS(=O)(=O)c4cccc(OC(F)(F)F)c4)CC3)C2)CO1 [Example 138, N-[2-[3-[(4R)-2-Oxooxazolidin-4-yl]propanoyl]-2-azaspiro[3.5]nonan-7-yl]-3-(trifluoro-methoxy)benzene-sulfonamide] | 62 |
| O=C1N[C@H](CCC(=O)N2CC(c3cnc(N4CC5(C4)CC(F)(F)C5)cn3)C2)CO1 [Example 139, (4R)-4-[3-[3-[5-(6,6-Difluoro-2-azaspiro[3.3]heptan-2-yl)pyrazin-2-yl]azetidin-1-yl]-3-oxo-propyl]oxazolidin-2-one] | 123 |
| O=C1N[C@H](CCC(=O)N2CC(c3cnc(N4CC5(CCCC5)C4)cn3)C2)CO1 [Example 140, (4R)-4-[3-[3-[5-(2-Azaspiro[3.4]octan-2-yl)pyrazin-2-yl]azetidin-1-yl]-3-oxo-propyl]oxazolidin-2-one] | 28 |
| O=C1N[C@H](CCC(=O)N2CC(c3ccc(N4CC5(C4)CC(F)(F)C5)nc3)C2)CO1 [Example 141, (4R)-4-[3-[3-[6-(6,6-Difluoro-2-azaspiro[3.3]heptan-2-yl)-3-pyridyl]azetidin-1-yl]-3-oxo-propyl]oxazolidin-2-one] | 78 |
| O=C1N[C@H](CCC(=O)N2CC(c3ccc(N4CC5(CCCC5)C4)nc3)C2)CO1 [Example 142, (4R)-4-[3-[3-[6-(2-Azaspiro[3.4]octan-2-yl)-3-pyridyl]azetidin-1-yl]-3-oxo-propyl]oxazolidin-2-one] | 13 |

Further lines, results first:

| IC50 [nM] | SMILES |
| --- | --- |
| 190 | O=C1N[C@H](CCC(=O)N2CC3(CCN(S(=O)(=O)c4ccc(C(F)(F)F)cc4F)CC3)C2)CO1 [Example 143, (4R)-4-[3-[7-[2-Fluoro-4-(trifluoromethyl)phenyl]sulfonyl-2,7-diazaspiro [3.5]nonan-2-yl]-3-oxo-propyl]oxazolidin-2-one] |
| 172 | O=C1N[C@H](CCC(=O)N2CC(c3ccc(N4CC(O)(C(F)(F)F)C4)nc3)C2)CO1 [Example 144, (4R)-4-[3-[3-[6-[3-Hydroxy-3-(trifluoro-methyl)azetidin-1-yl]-3-pyridyl]azetidin-1-yl]-3-oxo-propyl]oxazolidin-2-one] |
| 73 | Cc1cc(C)n(-c2ccc(C3CN(C(=O)CC[C@@H]4COC(=O)N4)C3)cc2)n1 [Example 145, (4R)-4-[3-[3-[4-(3,5-Dimethyl-pyrazol-1-yl)phenyl]azetidin-1-yl]-3-oxo-propyl]oxazolidin-2-one] |
| 137 | O=C1N[C@H](CCC(=O)N2CC(c3ccc(N4CCC(O)(C(F)(F)F)C4)nc3)C2)CO1 (stereo partly drawn) [Example 146, (4R)-4-[3-[3-[6-[3-Hydroxy-3-(trifluoro-methyl)pyrrolidin-1-yl]-3-pyridyl]azetidin-1-yl]-3-oxo-propyl] oxazolidin-2-one] |
| 2270 | O=C1N[C@H](CCC(=O)N2CC3(C2)CN(S(=O)(=O)c2ccc(C(F)(F)F)cc2)C3)CO1 [Example 147, (4R)-4-[3-Oxo-3-[2-[4-(trifluoromethyl)phenyl]sulfonyl-2,6-diazaspiro [3.3]heptan-6-yl]propyl] oxazolidin-2-one] |
| 498 | O=C1N[C@H](CCC(=O)N2CC3(C2)CN(S(=O)(=O)c2ccccc2OC(F)(F)F)C3)CO1 [Example 148, (4R)-4-[3-Oxo-3-[2-[2-(trifluoro-methoxy)phenyl]sulfonyl-2,6-diazaspiro[3.3]heptan-6-yl]propyl]oxazolidin-2-one] |
| 976 | O=C1N[C@H](CCC(=O)N2CC3(C2)CN(S(=O)(=O)c2cccc(OC(F)(F)F)c2)C3)CO1 [Example 149, (4R)-4-[3-Oxo-3-[2-[3-(trifluoro-methoxy)phenyl]sulfonyl-2,6-diazaspiro[3.3]heptan-6-yl]propyl]oxazolidin-2-one] |
| 2140 | O=C1N[C@H](CCC(=O)N2CC3(C2)CN(S(=O)(=O)c2ccc(OC(F)(F)F)cc2)C3)CO1 [Example 150, (4R)-4-[3-Oxo-3-[2-[4-(trifluoro-methoxy)phenyl]sulfonyl-2,6-diazaspiro[3.3]heptan-6-yl]propyl] oxazolidin-2-one] |
| 1240 | O=C1N[C@H](CCC(=O)N2CC3(CC(Nc4ccc(C(F)(F)F)nn4)C3)C2)CO1 [Example 151, (4R)-4-[3-Oxo-3-[6-[[6-(trifluoro-methyl)pyridazin-3-yl]amino]-2-azaspiro[3.3]heptan-2-yl]propyl] oxazolidin-2-one] |
| 1410 | O=C1N[C@H](CCC(=O)N2CC3(CC(Oc4ccc(C(F)(F)F)nn4)C3)C2)CO1 [Example 152, (4R)-4-[3-Oxo-3-[6-[6-(trifluoro-methyl)pyridazin-3-yl]oxy-2-azaspiro[3.3]heptan-2-yl]propyl] oxazolidin-2-one] |
| 2330 | NS(=O)(=O)c1ccccc1CN1CC2(C1)CN(C(=O)CC[C@@H]1COC(=O)N1)C2 [Example 153, 2-[[2-[3-[(4R)-2-Oxooxazolidin-4-yl]propanoyl]-2,6-diazaspiro[3.3]heptan-6-yl]methyl]benzene-sulfonamide] |
| 95 | O=C1N[C@H](CCC(=O)N2CC3(CC(NS(=O)(=O)c4cccc(C(F)(F)F)c4)C3)C2)CO1 [Example 154, N-[2-[3-[(4R)-2-Oxooxazolidin-4-yl]propanoyl]-2-azaspiro[3.3]heptan-6-yl]-3-(trifluoromethyl) benzene-sulfonamide] |
| 284 | O=C1N[C@H](CCC(=O)N2CC(NCc3ccc(C(F)(F)F)cc3)C2)CO1 [Example 155, (4R)-4-[3-Oxo-3-[3-[[4-(trifluoromethyl)phenyl]methyl-amino]azetidin-1-yl]propyl] oxazolidin-2-one] |
| 279 | O=C1N[C@H](CCC(=O)N2CC(NCc3cc(C(F)(F)F)ccc3F)C2)CO1 [Example 156, (4R)-4-[3-[3-[[2-Fluoro-5-(trifluoro-methyl)phenyl]methylamino]azetidin-1-yl]-3-oxo-propyl] oxazolidin-2-one] |
| 25 | CS(=O)(=O)c1cc(F)ccc1CC1CC2(C1)CN(C(=O)CC[C@@H]1COC(=O)N1)C2 [Example 157, (4R)-4-[3-[6-[(4-Fluoro-2-methylsulfonyl-phenyl)methyl]-2-azaspiro[3.3]heptan-2-yl]-3-oxo-propyl]oxazolidin-2-one] |
| 582 | O=C1N[C@H](CCC(=O)N2CCC(CNS(=O)(=O)c3ccc(C(F)(F)F)cc3)CC2)CO1 [Example 158, N-[[1-[3-[(4R)-2-Oxooxazolidin-4-yl]propanoyl]-4-piperidyl]methyl]-4-(trifluoro-methyl)benzene-sulfonamide] |
| 434 | O=C1N[C@H](CCC(=O)N2CCC(CNS(=O)(=O)c3ccc(OC(F)(F)F)cc3)CC2)CO1 [Example 159, N-[[1-[3-[(4R)-2-Oxooxazolidin-4-yl]propanoyl]-4-piperidyl]methyl]-4-(trifluoro-methoxy)benzene-sulfonamide] |
